row,SMILES,melting point
1,CCOP(=O)(OCC)Oc1ccc(/C=C2/C(=O)Nc3cc(OC)c(OC)cc32)cc1,139 to 141 °C
2,CCOCc1nc2c(N)nc3cc(-c4cccnc4)ccc3c2n1CC(O)CO (centres undefined),202 to 204 °C
3,CC(=O)NCc1cccc(-c2nc(=O)c3ccccc3s2)n1,199 to 200 °C
4,Cc1nn(C)cc1C(=O)Nc1ccccc1-c1ccc(F)c(Cl)c1,177 to 180 °C
5,COc1ccc(Br)c(C(=O)N2CCN(S(=O)(=O)c3ccc(Cl)cc3)CC2)c1,188 °C
6,O=C(CN1CCC(Cc2ccccc2)CC1)Nc1ccc2c(c1)OCC(=O)N2,184 to 188 °C
7,CCCCCCCCCCCCCCCCn1nnc(C(C(=O)Nc2c(OC)cc(OC)cc2OC)c2ccccc2)n1 (centres undefined),134 to 135 °C
8,CCOC(=O)c1cn(C)c2cc(F)ccc2c1=O,164 to 166 °C
9,CCC[C@@H]1COC(=O)N1c1nc(-c2ccc(C#N)cc2)cs1,131 to 133 °C
10,O=C(NCc1ccc(Cl)cc1)c1cnc2sc(C#CCO)cc2c1O,233 to 236 °C
11,N#Cc1ccc(-c2ccc(O)c(-c3nc4cc(C#N)ccc4[nH]3)c2)cc1,> 340 °C
12,CC(=O)Nc1ccc(SCc2nc3ccccc3s2)cc1,147 to 149 °C
13,CN(C)c1ccc(NC(=O)N(C[C@H]2CC[C@H](CN(C(=O)Nc3ccc(N(C)C)cc3)C3CCCC3)CC2)C2CCCC2)cc1,162 to 165 °C
14,COc1ccc(CN2N=C(c3ccc(OC)c(OC)c3)[C@@H]3CCCC[C@@H]3C2=O)cc1 (relative stereo),77 to 78 °C
15,C(#Cc1cccc(-c2cnccn2)c1)c1ccncc1,94 to 95 °C
16,CCc1ncc(CCCOc2c(C)cc(-c3noc(C)n3)cc2C)s1,43 to 45 °C
17,O=Cc1cc2c3ccccc3oc2c2ccccc12,123 to 125 °C
18,CC(C)CC(NC(=O)Cc1ccc(NC(=O)Nc2ccccc2Cl)cc1)c1cc(CCC(=O)O)on1 (centres undefined),143 to 145 °C
19,CN(C(=O)c1cccc(F)c1[Si](C)(C)C)C(C)(C)C,32 to 35 °C
20,CCC(O)C(=O)Nc1c(C)c(C)c2c(c1C)C(c1ccc(C(C)C)cc1)CO2 (centres undefined),146 to 147 °C
21,Nc1ncc(I)cc1[N+](=O)[O-],213 to 215 °C
22,O=C1CCC(N2C(=O)c3cccc(OCc4ccc(Cl)c(Cl)c4)c3C2=O)C(=O)N1 (centres undefined),245 to 247 °C
23,Cc1ccccc1-n1cnc(OC(C)C(=O)O)n1 (centres undefined),151 to 153 °C
24,COC(=O)Cc1cc(NC(=O)OC(C)(C)C)c([N+](=O)[O-])cc1C#Cc1ccccc1,134 °C
25,Cc1cc2c3c(cc(C)c2[nH]c1=O)CC(C)(CN=[N+]=[N-])O3 (centres undefined),232 to 234 °C

row,SMILES,melting point
1,Cc1cc(C)cc(OCC(O)CO)c1 (centres undefined),47 to 49 °C
2,Cc1ccc(C#Cc2ccc(NC(=O)OC(C)(C)C)c(N)c2)cc1,175 °C
3,COc1cc(C2c3cc4c(cc3C(NC3=CC(=O)N(CCCCCC(=O)O)C3=O)C3COC(=O)C23)OCO4)cc(OC)c1O (centres undefined),150 to 152 °C
4,COc1cc(Oc2ccc(S(C)(=O)=O)nc2)cc2cc(C3=NCC(CC(=O)NC[C@H](C)O)S3)[nH]c12 (some centres undefined),185 to 186 °C
5,O=C(NC1CCN(CCc2cccc(F)c2)C1)C12CC3CC(CC(C3)C1)C2 (centres undefined),87 to 89 °C
6,CCOC(=O)C(Oc1cc(-c2ccccc2)on1)C(=O)OCC,62 to 64 °C
7,O=C(Nc1ccc2c(c1)CCSCC2)OCc1ccccc1,118 to 120 °C
8,COc1ccc(Oc2c(Cl)cc(-n3ncc(=O)[nH]c3=O)cc2Cl)cc1NS(=O)(=O)c1ccc(F)cc1,90 to 96 °C
9,CC(C)[C@@H]1CC[C@@H](C)C[C@H]1O[C@@H]1OC(=O)[C@@H]2[C@H]1C2(C)C,82 °C
10,CC1C(=O)c2cc([N+](=O)[O-])ccc2OC1(C)C (centres undefined),78 °C
11,Cn1nc(-c2ccccc2Cl)nc1-c1cccc([N+](=O)[O-])c1Cl,124 to 125 °C
12,O=S(=O)(F)c1cc2nc(Cl)c(Cl)nc2cc1Cl,109 to 111 °C
13,CC(C)(C#N)CNC(=O)c1n[nH]cc1NC(=O)c1ccccn1,238 to 240 °C
14,CN(CCF)c1ccc2cc(-c3nc4ccccc4s3)c(=O)oc2c1,231 to 233 °C
15,CCNc1nc(C)c(-c2ccnc(Nc3ccc(N4CCOCC4)c(C)c3)n2)s1,213 to 214 °C
16,Cn1nc(-c2ccncc2)nc1-c1ccncc1,168 to 170 °C
17,CN(Cc1ccc(NC(=O)C2=Cc3cc(-c4ccsc4)ccc3OCC2)cc1)C1CCOCC1,194 to 195 °C
18,Cc1cccc(OCc2cccc(OCc3ccc4ccccc4n3)c2)c1C(=O)O,154 to 156 °C
19,O=C(CCCN1CCCCC1)c1ccc2c(c1)C(=O)c1cc(C(=O)CCCN3CCCCC3)ccc1-2,168 to 170 °C
20,O=C(O)c1c(-c2cccc3ccccc23)c2ccccc2n1Cc1cc2c(cc1Cl)OCO2,241 to 242 °C
21,CC(C)c1cccc([N+](=O)[O-])c1C#N,121 to 124 °C
22,O=C(O)c1ccc(NC(=O)c2ccccc2-c2ccccc2)cc1,246 to 249 °C
23,CCc1ccc(/C=C/c2cc(OC)c(OC)c(OC)c2)cc1,98 to 100 °C
24,CC(=O)OC(CF)c1ccccc1S(N)(=O)=O (centres undefined),122 to 124 °C
25,CS(=O)(=O)NCCCCn1c(CCO)nc2c(N)nc3cccnc3c21,194 to 195 °C

row,SMILES,melting point
1,Cc1ccc(N)cc1Nc1cc(-c2cccnc2)ccn1,183 to 186 °C
2,CS(=O)(=O)Oc1cc(=O)c(OCc2ccccc2)cn1Cc1ccccc1,115 to 117 °C
3,O=C1CC2(C(=O)N1)C(=O)N1CCCc3cc(Cl)cc2c31 (centres undefined),268 to 269 °C
4,COC(=O)c1ccc(CN2CCC(=O)C(C(c3ccccc3)c3ccccc3)C2)cc1 (centres undefined),107 to 108 °C
5,CC(C)N(C(=S)Nc1ccccc1[N+](=O)[O-])C1CCN(CCc2ccccc2)CC1,101 °C
6,[N-]=[N+]=NCCCn1cnc(-c2ccc(F)cc2)c1-c1ccncc1,64 to 65 °C
7,O=S(=O)(c1ccc(Cl)cc1)C(Cc1ccncc1)c1cc(F)ccc1F (centres undefined),129 °C
8,C=C1C(=C)C2OC1C1=C2CC2C(O)C=CC(=O)C2C1 (centres undefined),110 °C
9,O=C(O)C1=Cc2ccc(-c3ccccc3)cc2OC1C(F)(F)F (centres undefined),209 to 212 °C
10,O=C(O)c1ccc(NC(=O)c2ccccc2SSc2ccccc2C(=O)Nc2ccc(C(=O)O)cc2)cc1,> 285 °C
11,CCc1[nH]n(-c2c(Cl)cc(Cl)cc2Cl)c2nc(Cc3cccnc3)nc(=O)c1-2,257 to 260 °C
12,Cn1c([N+](=O)[O-])cnc1-c1cc(C(N)=O)on1,235 to 238 °C
13,CC(=O)C(=Cc1cccc([N+](=O)[O-])c1)C(=O)OC(C)CCl (centres undefined),95 to 96 °C
14,CC1(C2N=NC(=O)O2)CC1 (centres undefined),68 to 70 °C
15,Cc1cc(C(C)NC(=O)N(C)O)c(C)s1 (centres undefined),104 to 106 °C
16,O=S(=O)(c1ccc(Cl)cc1)C(c1ccncc1)C1CCCC1 (centres undefined),133 to 135 °C
17,CSc1nccc(C)c1NC(=O)CCCCCSc1nc2ccccc2o1,122 to 124 °C
18,O=C(O)Cc1noc(Cc2ccccc2)n1,109 to 112 °C
19,NS(=O)(=O)c1ccc(-c2cnn(Cc3ccc(F)cc3)c(=O)c2-c2ccc(F)cc2)cc1,237 to 239 °C
20,CCOC(=O)c1ccc(N2CCN(C(=O)C=Cc3cc(C(C)(C)C)c(O)c(C(C)(C)C)c3)CC2)cc1,147 to 150 °C
21,Cc1c(N)cc(C)c2c(=O)[nH]ccc12,242 °C
22,Cc1ccc(S(=O)(=O)Nc2ccc([N+](=O)[O-])cc2Cl)cc1,167 to 168 °C
23,O=C(CCCCCOc1cc(-c2ccccc2)c2ccccc2n1)N1CCCC1,52 to 54 °C
24,N#Cc1ccc([C@H]2CC[C@H](CI)CC2)cc1,127 °C
25,O=C(/C=C/c1ccccc1)N1CCCC1,100 °C

row,SMILES,melting point
1,CCOc1ccc(CCNC(=O)c2cnc3ccccc3c2)cc1S(N)(=O)=O,222 to 231 °C
2,O=C(NNc1ccc(NC(=S)Nc2ccccc2)cc1)c1ccccc1,149 to 151 °C
3,O=S(=O)(c1ccccc1)N1CCCC1c1ccc(Cl)cc1 (racemic),122 °C
4,CCC1=C(C#N)C(c2ccccc2Cl)c2c[nH]nc2N1 (centres undefined),> 300 °C
5,CN1CCN2c3ccccc3Cn3c(c(CO)c4ccccc43)C2C1 (centres undefined),184 to 189 °C
6,CCCC[C@@H](NC(=O)[C@H](Cc1ccc(O)cc1)NC(=O)OC(C)(C)C)C(=O)NCC(=O)O,174 to 175 °C
7,CC(C)CCn1c(=O)[nH]c2cc(Cl)cc(Cl)c2c1=O,227 to 229 °C
8,CC(=O)c1ccc(C2C(C(=O)c3ccc(C(C)C)cc3)=C(O)C(=O)N2c2ccc(C)nn2)cc1 (centres undefined),259 to 266 °C
9,Cc1cnc(NC(=O)C(Cc2ccc(F)cc2)c2ccc(S(C)(=O)=O)cc2)cn1 (centres undefined),172 to 175 °C
10,COc1ccc([N+](=O)[O-])c2c1CC(NC(C)=O)CC2 (centres undefined),205 to 206 °C
11,CC(C)c1ccc(NC(=O)N(C)C2N(C)C(c3ccc(F)cc3)=NC2(C(F)(F)F)C(F)(F)F)cc1 (centres undefined),203 to 204 °C
12,FC(F)c1nc2ccccc2n1-c1nc(Sc2ccccc2)nc(N2CCOCC2)n1,245 to 248 °C
13,CCCc1cccc(-c2nc(C)cc(Cl)n2)n1,77.1 °C
14,Cc1c(-c2cc(N(C)C)ncn2)ssc1=S,137 °C
15,CC(C)(N)c1ccc(-c2nc(Nc3cccc(F)c3)ncc2C#N)cc1,209 °C
16,Cc1cccc(Nc2nc(Cl)nc(Cl)n2)c1C,186 to 188 °C
17,CN(C(=O)CN(C(=O)CNC(=O)Nc1cccc(/C=N/O)c1)c1ccccc1)c1ccccc1,219 °C
18,COc1nc(NCCc2ccc(F)cc2)nc(-c2ccc(OC)c(S(=O)(=O)NC3CC3)c2)n1,200 to 201 °C
19,c1ccc(Nc2csc(-c3cn[nH]c3)n2)nc1,209 to 210 °C
20,c1ccc(COc2ccc3[nH]c(-c4ccc[nH]4)cc3c2)cc1,178 to 182 °C
21,NC(=O)C1Cc2cc(F)ccc2N1 (centres undefined),197 to 199 °C
22,O=C(Nc1ccccc1)C1=NOCCS1,109 to 110 °C
23,S=C(NCc1ccccc1Cl)N1CCc2c([nH]c3ccccc23)C1c1ccc2c(c1)OCO2 (centres undefined),123 to 128 °C
24,CCCC1NS(=O)(=O)N(COC(=O)c2c(Cl)cccc2Cl)C1=O (centres undefined),95 to 97 °C
